Results as given in ChEMBL document CHEMBL1134862, “Rational design of 4,5-disubstituted-5,7-dihydro-pyrrolo[2,3-d]pyrimidin-6-ones as a novel class of inhibitors of epidermal growth factor receptor (EGF-R) and Her2(p185(erbB)) tyrosine kinases” (Bioorg Med Chem Lett, 2002).

Key:
[1] = biological target: T1, Epidermal growth factor receptor (Homo sapiens, UniProt P00533); experiment: Inhibition of autophosphorylation of human epidermal growth factor-receptor (EGF-R) expressed in A431 cells; assay type: functional, cell-based, A-431
T1 sequence (P00533 whole entry): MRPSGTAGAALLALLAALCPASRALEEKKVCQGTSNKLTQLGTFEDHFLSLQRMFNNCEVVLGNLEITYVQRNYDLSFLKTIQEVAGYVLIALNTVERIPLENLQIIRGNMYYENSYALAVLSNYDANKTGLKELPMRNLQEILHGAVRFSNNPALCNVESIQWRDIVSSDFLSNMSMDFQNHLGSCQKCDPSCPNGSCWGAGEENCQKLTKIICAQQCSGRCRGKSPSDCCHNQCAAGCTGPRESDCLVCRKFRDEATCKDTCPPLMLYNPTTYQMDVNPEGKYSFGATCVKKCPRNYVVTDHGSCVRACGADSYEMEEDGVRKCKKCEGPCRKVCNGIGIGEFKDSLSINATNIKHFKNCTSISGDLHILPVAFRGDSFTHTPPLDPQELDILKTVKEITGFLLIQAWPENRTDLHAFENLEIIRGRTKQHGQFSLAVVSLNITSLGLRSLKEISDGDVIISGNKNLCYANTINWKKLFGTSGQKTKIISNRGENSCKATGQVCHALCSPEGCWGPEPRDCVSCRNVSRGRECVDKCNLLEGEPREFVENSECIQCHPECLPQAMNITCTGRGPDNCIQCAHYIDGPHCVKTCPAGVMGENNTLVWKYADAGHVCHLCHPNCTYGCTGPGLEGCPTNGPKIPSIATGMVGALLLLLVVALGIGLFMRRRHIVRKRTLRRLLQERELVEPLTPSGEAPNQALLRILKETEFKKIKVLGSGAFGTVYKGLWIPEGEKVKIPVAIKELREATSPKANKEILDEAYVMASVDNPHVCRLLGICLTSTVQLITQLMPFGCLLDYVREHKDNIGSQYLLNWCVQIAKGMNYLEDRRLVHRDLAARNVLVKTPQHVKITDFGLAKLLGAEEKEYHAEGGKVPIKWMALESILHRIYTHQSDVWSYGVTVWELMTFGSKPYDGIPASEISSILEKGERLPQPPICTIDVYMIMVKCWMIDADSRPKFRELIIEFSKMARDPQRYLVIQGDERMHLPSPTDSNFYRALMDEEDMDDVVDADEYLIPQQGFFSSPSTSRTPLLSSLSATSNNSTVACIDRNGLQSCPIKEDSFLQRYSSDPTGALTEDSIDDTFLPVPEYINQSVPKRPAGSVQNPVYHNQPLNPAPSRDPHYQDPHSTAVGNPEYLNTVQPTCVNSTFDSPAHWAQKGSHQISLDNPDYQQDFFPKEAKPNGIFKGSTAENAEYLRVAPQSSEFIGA

[2] = biological target: T1, Epidermal growth factor receptor; experiment: Inhibitory activity towards tyrosine phosphorylation for the epidermal growth factor-receptor kinase
[3] = biological target: Platelet-derived growth factor receptor beta (Homo sapiens, UniProt P09619); experiment: Inhibitory activity towards tyrosine phosphorylation of PDGF-receptor beta kinase
Sequence of Platelet-derived growth factor receptor beta (P09619 whole entry): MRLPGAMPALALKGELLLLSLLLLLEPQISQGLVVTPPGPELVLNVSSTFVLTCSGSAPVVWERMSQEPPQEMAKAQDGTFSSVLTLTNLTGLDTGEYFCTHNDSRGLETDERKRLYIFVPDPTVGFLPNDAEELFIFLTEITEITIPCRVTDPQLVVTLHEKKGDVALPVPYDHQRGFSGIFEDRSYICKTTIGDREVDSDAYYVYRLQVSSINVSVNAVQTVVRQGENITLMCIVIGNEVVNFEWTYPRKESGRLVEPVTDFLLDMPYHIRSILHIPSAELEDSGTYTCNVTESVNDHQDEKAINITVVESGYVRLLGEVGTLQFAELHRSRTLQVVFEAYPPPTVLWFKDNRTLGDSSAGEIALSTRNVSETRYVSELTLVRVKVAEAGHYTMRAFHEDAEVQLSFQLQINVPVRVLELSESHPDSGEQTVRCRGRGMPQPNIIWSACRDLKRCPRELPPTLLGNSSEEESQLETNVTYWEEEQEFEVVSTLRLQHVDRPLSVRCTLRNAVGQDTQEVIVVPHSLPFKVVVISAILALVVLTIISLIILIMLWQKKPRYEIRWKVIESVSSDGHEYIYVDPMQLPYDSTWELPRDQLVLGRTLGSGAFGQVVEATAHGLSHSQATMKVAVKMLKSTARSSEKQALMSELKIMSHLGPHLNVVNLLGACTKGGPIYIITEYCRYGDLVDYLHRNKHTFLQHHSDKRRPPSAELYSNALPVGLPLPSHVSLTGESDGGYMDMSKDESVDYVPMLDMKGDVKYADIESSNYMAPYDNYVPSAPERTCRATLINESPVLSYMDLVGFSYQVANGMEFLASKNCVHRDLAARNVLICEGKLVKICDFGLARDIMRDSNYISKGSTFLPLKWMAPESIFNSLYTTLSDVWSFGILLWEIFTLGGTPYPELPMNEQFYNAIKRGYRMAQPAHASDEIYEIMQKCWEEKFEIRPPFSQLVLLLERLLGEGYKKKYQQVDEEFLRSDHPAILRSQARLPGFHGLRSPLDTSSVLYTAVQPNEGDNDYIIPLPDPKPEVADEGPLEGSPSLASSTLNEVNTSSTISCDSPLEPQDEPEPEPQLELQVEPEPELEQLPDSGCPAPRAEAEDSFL

[4] = biological target: Receptor tyrosine-protein kinase erbB-2 (Homo sapiens, UniProt P04626); experiment: Inhibition of autophosphorylation of human Her (p185erbB) tyrosine kinase expressed in SKOV-3 cells; assay type: functional, cell-based, SK-OV-3
Sequence of Receptor tyrosine-protein kinase erbB-2 (P04626 whole entry): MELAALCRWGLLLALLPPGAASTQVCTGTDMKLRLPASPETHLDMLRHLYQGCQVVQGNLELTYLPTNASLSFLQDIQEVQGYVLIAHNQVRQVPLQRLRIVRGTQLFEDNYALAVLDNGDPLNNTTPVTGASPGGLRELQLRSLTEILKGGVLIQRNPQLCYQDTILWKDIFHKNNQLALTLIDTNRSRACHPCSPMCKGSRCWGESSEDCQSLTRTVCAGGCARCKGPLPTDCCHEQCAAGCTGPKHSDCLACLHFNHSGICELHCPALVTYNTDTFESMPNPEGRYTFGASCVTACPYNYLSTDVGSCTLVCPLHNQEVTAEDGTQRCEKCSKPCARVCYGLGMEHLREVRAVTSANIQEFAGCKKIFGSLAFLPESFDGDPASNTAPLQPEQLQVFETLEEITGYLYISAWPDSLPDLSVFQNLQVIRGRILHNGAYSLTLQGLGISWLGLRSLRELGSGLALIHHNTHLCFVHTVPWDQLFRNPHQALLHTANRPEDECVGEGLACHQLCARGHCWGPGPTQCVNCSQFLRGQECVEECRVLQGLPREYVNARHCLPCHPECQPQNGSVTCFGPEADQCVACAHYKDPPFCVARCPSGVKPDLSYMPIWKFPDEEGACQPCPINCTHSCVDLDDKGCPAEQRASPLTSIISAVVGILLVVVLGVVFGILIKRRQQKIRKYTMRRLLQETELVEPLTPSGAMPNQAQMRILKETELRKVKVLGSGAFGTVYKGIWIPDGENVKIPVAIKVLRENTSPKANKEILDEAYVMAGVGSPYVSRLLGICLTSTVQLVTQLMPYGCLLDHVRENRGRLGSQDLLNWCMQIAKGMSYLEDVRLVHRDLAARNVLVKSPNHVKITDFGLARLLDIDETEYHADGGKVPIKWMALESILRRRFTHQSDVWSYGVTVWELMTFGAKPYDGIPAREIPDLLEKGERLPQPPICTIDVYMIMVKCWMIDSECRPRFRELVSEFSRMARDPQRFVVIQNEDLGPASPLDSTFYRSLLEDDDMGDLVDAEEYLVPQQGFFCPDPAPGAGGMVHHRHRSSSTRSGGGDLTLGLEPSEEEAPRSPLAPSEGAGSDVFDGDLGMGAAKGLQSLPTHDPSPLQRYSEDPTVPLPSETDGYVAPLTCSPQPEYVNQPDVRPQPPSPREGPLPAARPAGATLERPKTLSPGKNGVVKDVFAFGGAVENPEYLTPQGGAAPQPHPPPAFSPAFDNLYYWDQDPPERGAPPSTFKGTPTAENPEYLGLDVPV

[5] = biological target: Vascular endothelial growth factor receptor 2 (Homo sapiens, UniProt P35968); experiment: Inhibition of tyrosine phosphorylation in cells expressing human VEGFR2 (Flk-1/KDR) kinase
Sequence of Vascular endothelial growth factor receptor 2 (P35968 whole entry): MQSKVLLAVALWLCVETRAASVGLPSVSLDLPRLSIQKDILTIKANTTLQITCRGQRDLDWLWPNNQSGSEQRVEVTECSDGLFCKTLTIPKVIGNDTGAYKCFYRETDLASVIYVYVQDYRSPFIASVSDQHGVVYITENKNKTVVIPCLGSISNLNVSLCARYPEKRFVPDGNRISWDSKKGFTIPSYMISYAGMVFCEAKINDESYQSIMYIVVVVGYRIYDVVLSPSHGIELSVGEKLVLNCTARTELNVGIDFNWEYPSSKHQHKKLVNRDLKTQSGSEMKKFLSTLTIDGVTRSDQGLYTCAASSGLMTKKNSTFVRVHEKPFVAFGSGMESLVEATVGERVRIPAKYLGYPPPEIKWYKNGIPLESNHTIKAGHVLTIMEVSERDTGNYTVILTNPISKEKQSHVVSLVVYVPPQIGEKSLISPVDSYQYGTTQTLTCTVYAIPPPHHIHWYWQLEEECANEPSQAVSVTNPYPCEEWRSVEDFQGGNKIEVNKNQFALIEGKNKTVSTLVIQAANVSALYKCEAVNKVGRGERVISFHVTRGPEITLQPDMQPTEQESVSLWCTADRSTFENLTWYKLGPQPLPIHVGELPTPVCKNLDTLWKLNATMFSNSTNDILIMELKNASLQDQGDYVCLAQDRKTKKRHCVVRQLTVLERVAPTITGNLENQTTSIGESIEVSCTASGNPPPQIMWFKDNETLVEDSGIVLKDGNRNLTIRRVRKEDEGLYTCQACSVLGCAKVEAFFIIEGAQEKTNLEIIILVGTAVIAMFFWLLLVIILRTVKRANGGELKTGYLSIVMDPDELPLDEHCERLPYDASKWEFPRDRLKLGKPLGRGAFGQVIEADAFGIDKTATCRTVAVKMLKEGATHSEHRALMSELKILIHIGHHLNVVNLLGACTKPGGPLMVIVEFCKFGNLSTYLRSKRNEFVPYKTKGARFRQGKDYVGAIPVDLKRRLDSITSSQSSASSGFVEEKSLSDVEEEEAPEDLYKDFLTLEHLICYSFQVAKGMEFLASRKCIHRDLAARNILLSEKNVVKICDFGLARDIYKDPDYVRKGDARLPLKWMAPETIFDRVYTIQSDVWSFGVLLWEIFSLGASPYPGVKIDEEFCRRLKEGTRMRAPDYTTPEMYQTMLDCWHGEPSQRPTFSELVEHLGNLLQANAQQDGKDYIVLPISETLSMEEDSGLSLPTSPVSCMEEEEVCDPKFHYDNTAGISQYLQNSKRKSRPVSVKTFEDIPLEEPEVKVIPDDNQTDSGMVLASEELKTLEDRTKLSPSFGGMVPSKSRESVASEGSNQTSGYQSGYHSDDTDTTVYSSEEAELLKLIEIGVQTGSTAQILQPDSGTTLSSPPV

Compound | IC50 [1] [nM] | IC50 [2] [nM] | IC50 [3] [µM] | IC50 [4] [nM] | IC50 [5] [µM]
Cc1cc(C(=O)N2CCOCC2)[nH]c1/C=C1\C(=O)Nc2ncnc(Nc3ccc4c(cnn4Cc4ccccc4)c3)c21 | 100 | 1.8 | > 10 | 100 | 2.1
Cc1cc(/C=C2\C(=O)Nc3ncnc(Nc4ccc(F)c(Cl)c4)c32)[nH]c1C(=O)N1CCN(C)CC1 |  | 210 | > 20 |  | > 20
Cc1cc(C(=O)N2CCOCC2)[nH]c1/C=C1\C(=O)Nc2ncnc(N3CCCCC3)c21 |  | > 20000 | > 20 |  | > 20
Cc1[nH]c(/C=C2\C(=O)Nc3ncnc(Nc4ccc(F)c(Cl)c4)c32)c(C)c1CCC(=O)O |  | 180 | > 20 |  | > 20
Cc1cc(C(=O)N2CCN(C)CC2)[nH]c1/C=C1\C(=O)Nc2ncnc(Nc3ccc(F)c(Cl)c3)c21 | 100 | 2.8 | > 20 | 200 | > 20
C#Cc1cccc(Nc2ncnc3c2/C(=C/c2[nH]c(C(=O)NCCN4CCOCC4)cc2C)C(=O)N3)c1 | 40 | 18 | > 20 | 40 | > 20
Cc1cc(CCC(=O)O)[nH]c1/C=C1\C(=O)Nc2ncnc(Nc3ccc(F)c(Cl)c3)c21 |  | 4.7 | > 20 |  | > 20
O=C1Nc2ncnc(Nc3ccc(F)c(Cl)c3)c2/C1=C/c1ccc(C(=O)NCCN2CCOCC2)[nH]1 |  | 22 | > 100 |  | > 20
CCN1CCN(C(=O)c2cc(C)c(/C=C3\C(=O)Nc4ncnc(Nc5ccc(F)c(Cl)c5)c43)[nH]2)CC1 | 200 | 13 | > 20 | 100 | > 20
Cc1cc(C(=O)N2CCOCC2)[nH]c1/C=C1\C(=O)Nc2ncnc(Nc3ccc(F)c(Cl)c3)c21 | 40 | 170 | > 20 | 400 | > 20
Cc1c(C(=O)N2CCN(C)CC2)c[nH]c1/C=C1\C(=O)Nc2ncnc(Nc3ccc(F)c(Cl)c3)c21 |  | 410 | > 20 |  | > 20
Cc1cc(C(=O)N2CCOCC2)[nH]c1/C=C1\C(=O)Nc2ncnc(Nc3ccc4c(ccn4Cc4ccccc4)c3)c21 | 100 | 4.5 | > 20 | 100 | 2.05
Cc1cc(C(=O)NCCN2CCOCC2)[nH]c1/C=C1\C(=O)Nc2ncnc(Nc3ccc(F)c(Cl)c3)c21 |  |  | > 100 | 100 | > 20

Continued by falling IC50 [5], values first:

IC50 [1] [nM] | IC50 [2] [nM] | IC50 [3] [µM] | IC50 [4] [nM] | IC50 [5] [µM] | Compound
300 | 41 | > 100 | 300 | 16.5 | Cc1cc(C)c(/C=C2\C(=O)Nc3ncnc(Nc4ccc(F)c(Cl)c4)c32)[nH]1
 | 5310 | > 20 |  | 10.1 | Cc1cc(C(=O)NCCN2CCOCC2)[nH]c1/C=C1\C(=O)N(C)c2ncnc(Nc3ccc(F)c(Cl)c3)c21
> 5000 | 29 | > 20 | > 5000 | 8.92 | Cc1cc(C(=O)O)[nH]c1/C=C1\C(=O)Nc2ncnc(Nc3ccc(F)c(Cl)c3)c21
 | > 20000 | > 20 |  | 5.82 | Cc1cc(C)c(/C=C2\C(=O)N(C)c3ncnc(Nc4ccc(F)c(Cl)c4)c32)[nH]1
200 | 1.1 | > 100 | 40 | 3.47 | Cc1cc(C(=O)NCCN2CCOCC2)[nH]c1/C=C1\C(=O)Nc2ncnc(Nc3ccc4c(ccn4Cc4ccccc4)c3)c21
 | 200 | > 20 |  | 3.47 | CCN(CC)CCNC(=O)c1c(C)[nH]c(/C=C2\C(=O)Nc3ncnc(Nc4ccc(F)c(Cl)c4)c32)c1C
5000 | 1410 | > 20 | > 5000 | 3.46 | Cc1cc(C(=O)N2CCOCC2)[nH]c1/C=C1\C(=O)Nc2ncnc(Nc3ccc4c(c3)CCC4)c21
 |  | > 20 | 500 | 1.63 | Cc1cc(C(=O)N2CC(C)NC(C)C2)[nH]c1/C=C1\C(=O)Nc2ncnc(Nc3ccc(F)c(Cl)c3)c21 (stereo not drawn)
 | 0.45 |  |  | 0.36 | CCN(CC)CC(O)CNC(=O)c1cc(C)c(/C=C2\C(=O)Nc3ncnc(Nc4ccc(F)c(Cl)c4)c32)[nH]1 (stereo not drawn)
200 | 1.2 |  | 200 | 0.3 | CCN(CC)CCNC(=O)c1cc(C)c(/C=C2\C(=O)Nc3ncnc(Nc4ccc(F)c(Cl)c4)c32)[nH]1
500 | 450 | 5.62 |  | 0.04 | CCN(CC)CCNC(=O)c1cc(C)c(/C=C2\C(=O)Nc3ncnc(Nc4ccc(Cl)cc4F)c32)[nH]1
